From publication PMC3543424, “Antitumor Activity of Antimicrobial Peptides Containing CisoDGRC in CD13 Negative Breast Cancer Cells” (PLoS ONE, 2013)
*1 amine or outer side, *2 acyl side, *3 side chain or, on linkers, in order; H or OH if unused. Where a SMILES comes first, the peptide text is derived from it. Bridges are numbered along the chain shown (N, C = ends). [ ]: non-standard residue; d: D form. βAsp = O=C(O)[C@H](CC(=O)[*:2])N[*:1]

Legend:
[1] = system: MCF-7 cells; type: cell-based, human
Procedure: (§1) The MCF-7 and MDA-MB-231 cells were cultured in 96-well plates at a density of 5×10^4 cells/well. CDAK and CRLK were added to different wells, ranging from 10 µg/ml to 200 µg/ml, respectively. After 24 h, 48 h and 72 h, 3-[4,5-dimethylthiazol- 2-yl]-2,5-diphenyltetrazolium bromide (MTT; Sigma-Aldrich, St. Louis, MO, USA) was added to each well and incubated for 4 h. The MTT was dissolved in 200 µL of Dimethyl sulfoxide (DMSO). Absorbance was detected using a microplate reader at 490 nm. Wells without peptides were used to control cell viability, representing 100% cell survival. Wells without cells were used for the blank of the spectrophotometer.

[2] = system: MDA-MB-231 cells; type: cell-based, human
Procedure: as §1

[3] = system: lung and liver; design: species or system BALB/cnu-nu athymic nude mice; details: mouse, in vivo, iv, 4 mg/kg
Description: Terminal deoxynucleotidyl teansferase-mediated dUTP nick end-labeling (TUNEL) were examined in the lung and liver using TdT In Situ Apoptosis Detection Kit (Trevigen, Gaithersburg, Maryland, USA) following the manufacturer's protocols. Apoptosis cells were identified as having brown nuclei under a light microscope. The number of apoptosis cells was counted in five random fields (×400) in a blinded manner.

[4] = system: HUVEC; details: MTT, 24 h
[5] = system: HFF; details: MTT, 24 h
[6] = system: MCF-7 cells; assay: DNA ladder (DNA fragmentation) assay; type: cell-based, human; details: MCF-7, 24 h; CDAK 190 µg/ml, CRLK 200 µg/ml; 1% agarose gel
Procedure: (§2) For DNA fragmentation analysis, DAN of cells which were treated with CDAK (190 µg/ml and 212 µg/ml), CRLK (200 µg/ml) and control (PBS) for 24 h were extracted using a selective apoptotic DNA ladder extraction KIT (Biomed Company, Beijing, China) and were analyzed using 1% agarose gels. DNA was visualized with ethidium bromide staining.

[7] = system: MDA-MB-231 cells; assay: DNA ladder (DNA fragmentation) assay; type: cell-based, human; details: MDA-MB-231, 24 h; CDAK 212 µg/ml, CRLK 200 µg/ml; 1% agarose gel
Procedure: as §2

[8] = system: MCF-7 cells; assay: Cell cycle, BrdU/PI flow cytometry; type: cell-based, human; details: MCF-7, 24 h, CDAK 190 µg/ml, CRLK 200 µg/ml
Procedure: (§3) After being incubated with CDAK (190 µg/ml and 212 µg/ml), CRLK (200 µg/ml) and control (PBS) for 24 h, 20 µM BrdU (Sigma-Aldrich, St. Louis, MO, USA) was added to the media for 30 min. Cells were harvested and fixed in iced-cold 75% ethanol for 24 h. Then, the cells were treated with 4N HCL, neutralized by 0.1 M borax, and washed with PBS containing 0.05% bovine serum albumin (BSA). The cells were incubated sequentially with anti-BrdU antibody (santa cruz biotechnology, California, US) and FITC-conjugate anti-mouse secondary antibody in the presence of 0.5%BSA and 0.5%Tween-20. Cells were added PI (50 µg/ml) and RNase A (50 µg/ml) for 20 minutes and analyzed by flow cytometry. Select a forward scatter (FSC) versus side scatter (SSC) window defined single cells and exclude cell doublets.

[9] = system: MDA-MB-231 cells; assay: Cell cycle, BrdU/PI flow cytometry; type: cell-based, human; details: MDA-MB-231, 24 h, CDAK 212 µg/ml, CRLK 200 µg/ml
Procedure: as §3

[10] = system: MDA-MB-231 xenograft; assay: MDA-MB-231 xenograft growth in athymic nude mice; type: in vivo, BALB/cnu-nu athymic nude mice; details: 4 mg/kg intravenously, three times a week for three weeks, five mice per group
Procedure: The experiment was approved by the Animal Care and Use Committee of Xi'an Jiaotong University. MDA-MB-231 cells (2×10^6) were injected subcutaneously into the right flank of 6- to 9-week-old female BALB/cnu-nu athymic nude mice (Shanghai Silaike Laboratory Animal Co., Ltd, Shanghai, China) weighing 18 to 20 g. When the tumor reached 60 mm^3 in size, the mice were randomized into three groups: (1) CDAK (4 mg/kg); (2) CRLK (4 mg/kg); and (3) saline (control). They were then injected intravenously (50 µL/injection) three times a week for three weeks. Tumor volume was measured three times a week using calipers to calculate the tumor size using the following formula: length×width^2×0.5. All values are expressed as the mean ± SD.
Tumor-bearing athymic nude mice were sacrificed and the weights of the tumors were recorded. The tumor tissue, liver as well as lung tissues of mice were paraffin-embedded. The tumor paraffin sections were incubated for 10 minutes with 3% H2O2 deionized water to eliminate the endogenous peroxidase activity, washed in PBS three times for five minutes, 5% goat serum was added for 15 minutes, then incubated with mouse monoclonal CD105 antibody (Abcam, Cambridge, UK) at 4°C overnight and washed with PBS three times for five minutes. […]

[11] = system: MDA-MB-231 xenograft; assay: Tumor angiogenesis, anti-CD105 immunohistochemistry (microvessel density); type: in vivo, BALB/cnu-nu athymic nude mice; details: 4 mg/kg intravenously, tumor sections, P<0.05
Procedure: Tumor-bearing athymic nude mice were sacrificed and the weights of the tumors were recorded. The tumor tissue, liver as well as lung tissues of mice were paraffin-embedded. The tumor paraffin sections were incubated for 10 minutes with 3% H2O2 deionized water to eliminate the endogenous peroxidase activity, washed in PBS three times for five minutes, 5% goat serum was added for 15 minutes, then incubated with mouse monoclonal CD105 antibody (Abcam, Cambridge, UK) at 4°C overnight and washed with PBS three times for five minutes. The biotin-labeled goat anti-mouse IgG were incubated with sections at 37°C for 15 minutes, and then the sections were washed by PBS three times for five minutes. Horseradish peroxidase-avidin enzyme working solution was added at 37°C for 15 minutes and washed with PBS. DAB was added to develop the color, and the nuclei were counterstained mildly with hematoxylin. The liver and lung paraffin sections were stained with hemaetoxylin and eosin (HE) and were independently evluated by two pathologists.

Compound | concentration with significant cytotoxicity [1] [ng/mL] | IC50 (peptide concentration that induces 50% inhibition of cell growth) ([1]; MCF-7, MTT, 24 h) [µg/mL] | concentration with significant cytotoxicity [2] [ng/mL] | IC50 (peptide concentration that induces 50% inhibition of cell growth) ([2]; MDA-MB-231, MTT, 24 h) [µg/mL] | apoptosis rate (%) in liver [3] | apoptosis rate (%) in lung [3] [%] | IC50 (peptide concentration that induces 50% inhibition of cell growth) [4] [µg/mL] | IC50 (peptide concentration that induces 50% inhibition of cell growth) [5] [µg/mL] | formation of DNA nucleosome ladder [6] | formation of DNA nucleosome ladder [7] | cells in S phase [8] [%] | cells in S phase [9] [%] | tumor volume compared with control group [10] | inhibition of angiogenesis (microvessel density, anti-CD105) [11]
CC[C@H](C)[C@H](NC(=O)[C@H](CC(C)C)NC(=O)[C@H](CC(C)C)NC(=O)[C@@H]1CSSC[C@H](N)C(=O)N[C@H](C(=O)O)CC(=O)NCC(=O)N[C@@H](CCCNC(=N)N)C(=O)N1)C(=O)N[C@H](C(=O)N[C@@H](CCCCN)C(=O)N[C@@H](CC(C)C)C(=O)N[C@@H](C)C(=O)N[C@@H](CCCCN)C(=O)N[C@@H](CC(C)C)C(=O)N[C@@H](C)C(=O)N[C@@H](CCCCN)C(=O)N[C@@H](CCCCN)C(=O)N[C@@H](CC(C)C)C(=O)N[C@@H](C)C(=O)N[C@@H](CCCCN)C(=O)N[C@@H](CC(C)C)C(=O)N[C@@H](C)C(=O)N[C@@H](CCCCN)C(=O)O)[C@@H](C)CC [CDAK] (H-C[βAsp]GRCLLIIKLAKLAKKLAKLAK-OH; disulfide 1-5) | > 40000 | 190 | > 40000 | 212 | 0.38%±0.14 | 0.16±0.02 | 861 | 912 |  |  |  |  |  | 
CRDGCALKAIAKLKLKKLILALK [CRLK] |  |  |  |  | 0.35%±0.23 | 0.17±0.01 |  |  | no DNA ladder was detected | no DNA ladder was detected | 19.7 | 23.3 | did not reach a statistically significance | not
